Results from ChEMBL document CHEMBL5724558, “Image-based profiling of drug vulnerabilities in CRC organoids” (2024).
“And” between values parts separate entries of the source, which are not always exact repeats. Equal values may be shown once.

Legend:
Assay type in all cases: functional, Homo sapiens
Design in all cases: dose or concentration left out as unconfirmed
Colon cancer organoid [1] = experiment: Image-based profiling of donated chemical probes and chemogenomic kinase set in O21 CRC organoid. Image analysis is performed on the sum area metric, and the data were normalized to the DMSO control. After imaging the organoid viability is measured using the OneGloEX Luciferase Assay System. The normalized viability data and sum area are reported.
Colon cancer organoid [2] = experiment: Image-based profiling of donated chemical probes and chemogenomic kinase set in O06 CRC organoid. Image analysis is performed on the sum area metric, and the data were normalized to the DMSO control. After imaging the organoid viability is measured using the OneGloEX Luciferase Assay System. The normalized viability data and sum area are reported.
Colon cancer organoid [3] = experiment: Image-based profiling of donated chemical probes and chemogenomic kinase set in O09 CRC organoid. Image analysis is performed on the sum area metric, and the data were normalized to the DMSO control. After imaging the organoid viability is measured using the OneGloEX Luciferase Assay System. The normalized viability data and sum area are reported.

SMILES | Cell Viability (Colon cancer organoid [1]; Replication number 1) | Cell Viability (Colon cancer organoid [1]; Replication number 2) | Cell Viability (Colon cancer organoid [2]; Replication number 1) | Cell Viability (Colon cancer organoid [2]; Replication number 2) | Cell Viability (Colon cancer organoid [3]; Replication number 1) | Cell Viability (Colon cancer organoid [3]; Replication number 2)
CSc1cccnc1N1CCN(Cc2nc3ccccc3[nH]2)CC1 [A-769] | 84.3952% and 76.2613% | 99.9235% and 83.6735% | 94.9192% and 98.1265% | 78.7963% and 95.9431% | 134.459% and 96.2835% | 149.547% and 115.371%
O=C(O)c1ccc2c(c1)nc(Nc1cccc(Cl)c1)c1ccncc12 [SILMITASERTIB] | 103.567% and 112.056% | 102.008% and 128.967% | 95.4776% and 72.7779% | 97.8% and 96.4524% | 75.9271% and 48.6208% | 96.2856% and 65.3282%
Cc1nc(C2CCN(C(=O)c3ccc(OC(F)(F)F)cc3N)CC2)c2ncc(N3CCN(C)CC3)cc2n1 [BAY-693] | 120.305% and 115.678% | 95.3265% and 86.6757% | 107.628% and 117.814% | 129.663% and 123.258% | 87.1033% and 97.7241% | 88.4972% and 107.653%
CN(C)[C@H]1CCN(c2cc(-c3ccccc3)nc3ccnn23)C1 [(S)-ZINC-3573] | 105.743% and 100.4% | 101.814% and 109.109% | 125.32% and 118.543% | 115.524% and 96.3479% | 74.4521% and 108.791% | 105.794% and 104.481%
COc1cc(OC)cc(-c2noc(N3CCN(C)C4(CCN(c5ccnc(C)c5)CC4)C3)n2)c1 | 102.094% and 140.496% | 79.0091% and 95.0477% | 99.0993% and 95.9195% | 203.392% and 146.256% | 147.791% and 90.4173% | 237.296% and 126.576%
CNc1nc(Nc2cnn([C@H]3CCN(C4COC4)C[C@@H]3F)c2Cl)ncc1C(F)(F)F | 107.524% and 121.533% | 104.61% and 94.4225% | 126.64% and 127.973% | 90.3478% and 106.324% | 95.686% and 93.751% | 102.903% and 81.5252%
CN1C(=O)c2sccc2N(C)c2nc(Nc3ccc(S(N)(=O)=O)cc3)ncc21 | 57.1917% and 77.4913% | 65.5582% and 80.0288% | 15.9976% and 28.488% | 18.284% and 43.3933% | 28.4515% and 23.8118% | 41.5113% and 34.0138%
O=C(NCC(=O)N1CCCC1)Nc1ccc2cnccc2c1 | 118.981% and 107.577% | 82.9956% and 91.8258% | 118.335% and 117.664% | 145.589% and 95.8311% | 77.5338% and 89.49% | 125.69% and 99.4932%
CC(=O)c1cc(-c2cc(C(=O)NC3CC3)ccc2C)c2ncccn12 | 100.074% and 118.158% | 94.4985% and 97.1957% | 115.093% and 116.94% | 131.559% and 119.251% | 163.828% and 97.8362% | 113.773% and 107.19%
Cl.O=C([C@@H](Cc1cccc(C(F)(F)F)c1)NS(=O)(=O)c1cc(F)c2c(c1)CCNC2)N1CCCC1 | 76.7615% and 83.4749% | 81.6272% and 85.3819% | 106.357% and 105.584% | 187.159% and 130.005% | 80.2483% and 102.241% | 101.188% and 101.204%
Cc1sc2c(c1C)C(c1ccc(Cl)cc1)=N[C@H](CC(=O)OC(C)(C)C)c1nnc(C)n1-2 | 103.643% and 116.982% | 106.671% and 110.621% | 124.069% and 114.282% | 126.933% and 90.5736% | 84.3348% and 91.1128% | 66.0131% and 88.6601%
CCc1cc2cc(NS(=O)(=O)c3ccc(C#N)cc3)ccc2n(CC)c1=O | 101.899% and 123.449% | 90.9641% and 104.714% | 145.787% and 148.591% | 141.244% and 141.715% | 136.869% and 118.47% | 168.563% and 119.449%
CNc1cc(Oc2cc(C(=O)Nc3cc(N4CCN(C)CC4)cc(C(F)(F)F)c3)ccc2C)ncn1 | 91.6844% and 105.366% | 86.288% and 119.755% | 159.785% and 126.415% | 134.323% and 110.437% | 67.5725% and 54.8543% | 89.2328% and 78.5558%
CN(C)C/C=C/C(=O)Nc1cc2c(Nc3ccc(F)c(Cl)c3)ncnc2cc1O[C@H]1CCOC1.O=C(O)/C=C\C(=O)O.O=C(O)/C=C\C(=O)O [AFATINIB DIMALEATE] | 61.0357% and 82.5087% | 65.3803% and 88.665% | 4.81% and 9.6592% | 4.363% and 10.2005% | 8.847% and 13.6138% | 6.151% and 10.3121%
CC(=O)C1=C(C)N(c2cccc(C(F)(F)F)c2)C(=O)N[C@@H]1c1ccc(C#N)nc1 [BAY-678] | 123.826% and 98.3829% | 102.879% and 115.306% | 116.42% and 104.215% | 86.788% and 60.6455% | 154.648% and 117.069% | 95.0691% and 89.9598%
CN([C@@H]1CCc2c(CC(=O)O)c3cc(S(C)(=O)=O)ccc3n2C1)S(=O)(=O)c1ccc(F)cc1 [CRTH2-negative-control] | 114.066% and 111.772% | 101.538% and 90.3061% | 102.982% and 101.171% | 44.9133% and 103.761% | 103.344% and 126.626% | 95.2483% and 103.103%
CCS(=O)(=O)c1cc2cc(C[C@](O)(CC(C)(C)c3ccc(F)cc3C(N)=O)C(F)(F)F)[nH]c2cn1 [BI 653048] | 95.8907% and 94.89% | 87.1647% and 83.1633% | 90.5623% and 97.4239% | 82.9692% and 113.237% | 139.667% and 102.973% | 122.797% and 92.0044%
FC(F)(F)c1ccc2c(c1)nc(-c1cccnc1)n2C1CC1 [MSD-CYP11B2-Negative-control] | 89.0845% and 95.4893% | 78.0159% and 105.031% | 82.4588% and 96.4372% | 50.7409% and 62.2297% | 82.6005% and 103.914% | 111.8% and 104.679%
O=C(O)[C@@H]1[C@@H](Cn2nnc3ccccc3c2=O)CC[C@H]1C(=O)c1ccc(OCCC2CCOCC2)cc1 [BAY-694] | 110.342% and 94.3079% | 96.7199% and 85.7143% | 110.156% and 94.3794% | 134.213% and 84.5721% | 120.527% and 70.2416% | 178.043% and 104.564%
Cc1cnc(-c2cc(Cl)ccc2F)cc1-n1c(=O)n(CC(N)=O)c2ccccc21 [Al11] | 94.0699% and 103.674% | 91.9117% and 97.8926% | 119.898% and 115.628% | 113.033% and 103.316% | 78.4595% and 96.5987% | 101.459% and 100.317%
O=C1CCc2cc(Nc3cc(OC4CCOCC4)c([N+](=O)[O-])cc3Cl)ccc2N1 | 105.584% and 104.204% | 94.4034% and 103.061% | 92.8758% and 110.539% | 96.13% and 100.681% | 197.242% and 145.978% | 128.806% and 115.663%
